Test results published in patent US9283256B2, “Antibacterial composition comprising Salvia extracts” (Botanic Century (Beijing) Co. Ltd., priority 2007, dated 2016).
Converted amounts (≈) assume the structure as drawn. Where two headings read alike, the source gives them in different places.

Experiments:
MRSA 98 = test: MIC and MBC by microtitre well methods, PYN6 versus individual compounds (TEST 1); assay type: cell-based, Staphylococcus aureus
Experimental: (§1) Minimum Inhibitory and Minimum Bactericidal activities (MIC and MBC) of PYN6 were determined for 2 strains of MRSA using standard microtitre well methods. MICs were determined by measuring growth over 20 hrs using spectroscopy at 490 nm. MBCs were determined by subculture from these microtitre plates onto solid media after 20 hrs and determining survival of bacteria grown in the presence of PYN6.
TEST 1 MIC and MBC comparing PYN6 to A, B, C and D against MRSA 98

Staphylococcus aureus = conditions: filter paper disc, chemicals isolated from Danshen; cited from earlier work
MRSA 2 = test: MIC and MBC by microtitre well methods, PYN6 versus individual compounds (TEST 2); assay type: cell-based, Staphylococcus aureus; conditions: for MIC: microtitre well, growth over 20 hrs, 490 nm; for MBC: subculture onto solid media after 20 hrs
Experimental: as §1
TEST 2 MIC and MBC comparing PYN6 to A, B, C and D against MRSA 2

[1] = dissolved in chloroform; cited from earlier work
Haemolytic streptococcus = conditions: dissolved in dimethylformamide (DMF); cited from earlier work
Escherichia coli = conditions: dissolved in dimethylformamide (DMF); cited from earlier work
[2] = test system: Staphylococcus aureus ATCC225923; conditions: dissolved in dimethylformamide (DMF); cited from earlier work
[3] = test system: Bacillus aeruginosus ATCC227853; conditions: dissolved in dimethylformamide (DMF); cited from earlier work
[4] = test system: clinical isolates of MRSA (T3, 102, MRSA 99); assay type: cell-based, Staphylococcus aureus; conditions: sub-inhibitory sub-culture, 3 week test period
Experimental: This experiment was conducted to test for the rapid development of resistance in Staphylococcus aureus in the presence of sub-inhibitory doses of the active extract.
All clinical strains were from The Royal London, St Bartholomew's or Newham hospitals in London. Each strain had been identified as an MRSA.
High concentrations of organisms (10^7cfu/ml^−1) were grown in sub-inhibitory concentrations 0, 2 and 8 mg l^−1 of the active extract.
Organisms were sub-cultured into fresh active extract media at day 4 and again at day 7. MICs were checked weekly using standard methods. Subcultures were carried out in triplicate.

[5] = TEST 1, MRSA 98, microtitre well, growth over 20 hrs, 490 nm
[6] = TEST 1, MRSA 98, subculture onto solid media after 20 hrs
[7] = Staphylococcus aureus, read-out: MIC
[8] = Staphylococcus aureus, read-out: MBC
[9] = Staphylococcus aureus, MRSA, 20 h

Cc1coc2c1C(=O)C(=O)c1c-2ccc2c(C)cccc12 [A, Tashinone 1]
MIC (MRSA 98; [5]): 125 µg/mL (≈ 452 µM)
MBC (MRSA 98; [6]): <500 µg/mL
anti-Staphylococcus aureus activity (Staphylococcus aureus): did not show activity
MIC (MRSA 2): 125 µg/mL (≈ 452 µM)
MBC (MRSA 2): >500 µg/mL

Cc1coc2c1C(=O)C(=O)c1c-2ccc2c1CCCC2(C)C [B, Tashinone 11A]
MIC (MRSA 98; Staphylococcus aureus, TEST 1, MRSA 98, microtitre well, growth over 20 hrs, 490 nm, read-out: MIC): 125 µg/mL (≈ 425 µM)
MBC (MRSA 98; Staphylococcus aureus, TEST 1, MRSA 98, subculture onto solid media after 20 hrs, read-out: MBC): < 500 µg/mL
anti-Staphylococcus aureus activity (Staphylococcus aureus): did not show activity
anti-microbial activity [1]: did not demonstrate any anti-microbial activity
MIC (Haemolytic streptococcus): 121.5 µg/mL (≈ 413 µM)
MIC (MRSA 2; [7]): 125 µg/mL (≈ 425 µM)
MBC (MRSA 2; [8]): > 500 µg/mL
minimum inhibitory concentration (MIC) (Escherichia coli): 50 µg/mL (≈ 170 µM)
MIC [2]: 100 µg/mL (≈ 340 µM)
MIC [3]: 50 µg/mL (≈ 170 µM)

Cc1cccc2c3c(ccc12)C1=C(C(=O)C3=O)[C@@H](C)CO1 [C, Dyhydrotashinone]
MIC (MRSA 98; [5]): 8 µg/mL (≈ 28.7 µM)
MBC (MRSA 98; [6]): 125 µg/mL (≈ 449 µM)
anti-Staphylococcus aureus activity (Staphylococcus aureus): demonstrated anti-Staphylococcus aureus activity
MIC (MRSA 2): 1.8 µg/mL (≈ 6.47 µM)
MBC (MRSA 2): 62 µg/mL (≈ 223 µM)

C[C@H]1COC2=C1C(=O)C(=O)c1c2ccc2c1CCCC2(C)C [D, Cryptotashinone]
MBC (MRSA 98; [9]): 250 µg/mL (≈ 844 µM)
MIC (MRSA 98; [9]): 15 µg/mL (≈ 50.6 µM)
MIC (MRSA 2; [7]): 7.7 µg/mL (≈ 26 µM)
MBC (MRSA 2; [8]): 125 µg/mL (≈ 422 µM)

Cc1coc2c1C(=O)C(=O)c1c-2ccc2c1CCCC2(C)CO (stereo not drawn) [Tanshinone IIB]
anti-Staphylococcus aureus activity (Staphylococcus aureus): demonstrated anti-Staphylococcus aureus activity
MIC (Haemolytic streptococcus): 25 µg/mL (≈ 80.6 µM)
minimum inhibitory concentration (MIC) (Escherichia coli): 25 µg/mL (≈ 80.6 µM)
MIC [2]: 50 µg/mL (≈ 161 µM)
MIC [3]: 25 µg/mL (≈ 80.6 µM)

Gentamicin
development of resistance [4]: no development of resistance

neotanshinone A
anti-Staphylococcus aureus activity (Staphylococcus aureus): did not show activity

neotanshinone B
anti-Staphylococcus aureus activity (Staphylococcus aureus): did not show activity

neotanshinone C
anti-Staphylococcus aureus activity (Staphylococcus aureus): did not show activity
